Where a name gives a salt, the structure may show the parent alone. Read-outs that look alike come from different tables or passages of the source. Each block holds one compound with its values, some of them ahead of it.
Columns and labels:
Sprague-Dawley rats = assay: Serum/plasma Ca2+, PTH and calcitonin in rats in vivo; set-up: species or system rat; conditions: i.p.
Method: Compounds shown to activate the bovine parathyroid cell calcium receptor in vitro were tested for hypocalcemic activity in vivo. Male Sprague-Dawley rats (200 g) were maintained on a low calcium diet for one week prior to receiving test substance or vehicle as control. Blood was collected from the tail vein three hours after the intra-peritoneal administration of NPS 467. […] Serum total calcium, albumin and phosphate were measured by techniques well known in the art.
Rats (male, Sprague-Dawley, 250-300 g) were fed standard rat chow and fasted overnight prior to the experiment. NPS R-467 was suspended in corn oil, and administered as a single oral dose through a gavage needle. Three hours later a sample of blood was taken from the tail vein and assessed for ionized Ca^2+ levels.

[1] = target: T1, parathyroid cell calcium receptor (Bos taurus, UniProt P35384); assay: Mobilization of intracellular Ca2+ ([Ca2+]i, fura-2) in bovine parathyroid cells; assay type: cell-based; set-up: Parathyroid glands were obtained from freshly slaughtered calves (12-15 weeks old); endogenous in cells; host or cells: dissociated primary bovine (calf) parathyroid cells; conditions: for compounds with any effect on basal [Ca2+]i or increases evoked by extracellular Ca2+: tested at 1 μM; for influx of extracellular Ca2+ / potentiation of Ca2+ mobilization / transient increases in [Ca2+]i: verapamil, D-600, TMB-8 100 μM, NPS 384 300 μM
T1 sequence (P35384 20-1085): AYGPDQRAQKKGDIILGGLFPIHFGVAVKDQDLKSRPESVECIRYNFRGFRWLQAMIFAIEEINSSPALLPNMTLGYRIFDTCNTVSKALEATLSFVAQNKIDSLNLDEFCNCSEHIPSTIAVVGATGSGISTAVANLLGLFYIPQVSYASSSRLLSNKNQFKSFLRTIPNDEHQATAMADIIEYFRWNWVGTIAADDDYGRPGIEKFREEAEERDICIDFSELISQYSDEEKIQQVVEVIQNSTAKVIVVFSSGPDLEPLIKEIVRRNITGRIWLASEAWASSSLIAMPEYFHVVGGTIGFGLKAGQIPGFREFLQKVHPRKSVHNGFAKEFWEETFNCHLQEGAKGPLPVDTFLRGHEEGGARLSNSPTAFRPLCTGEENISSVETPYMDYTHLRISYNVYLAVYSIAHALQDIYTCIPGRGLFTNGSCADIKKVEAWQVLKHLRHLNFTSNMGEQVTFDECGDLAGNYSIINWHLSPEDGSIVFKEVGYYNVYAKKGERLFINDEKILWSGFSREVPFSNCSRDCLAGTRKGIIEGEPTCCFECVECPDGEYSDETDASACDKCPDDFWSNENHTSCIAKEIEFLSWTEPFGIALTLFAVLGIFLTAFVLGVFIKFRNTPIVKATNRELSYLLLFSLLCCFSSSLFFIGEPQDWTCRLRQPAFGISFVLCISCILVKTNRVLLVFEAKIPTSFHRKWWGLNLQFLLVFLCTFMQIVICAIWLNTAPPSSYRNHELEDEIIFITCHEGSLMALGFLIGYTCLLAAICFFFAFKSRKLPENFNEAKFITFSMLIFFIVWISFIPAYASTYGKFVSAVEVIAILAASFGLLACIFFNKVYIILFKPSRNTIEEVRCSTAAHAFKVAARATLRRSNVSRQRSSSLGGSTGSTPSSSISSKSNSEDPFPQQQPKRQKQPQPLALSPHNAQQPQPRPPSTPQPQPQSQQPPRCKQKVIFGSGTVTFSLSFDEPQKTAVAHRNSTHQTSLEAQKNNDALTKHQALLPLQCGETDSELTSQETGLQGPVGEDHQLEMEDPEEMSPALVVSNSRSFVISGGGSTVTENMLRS

[2] = target: bovine parathyroid cell calcium receptor (bovine) (UniProt P35384); assay: cell-based or functional assay
[3] = EC50 for mobilization of intracellular Ca2+, bovine parathyroid cells
[4] = Table 8 (arylalkylamine calcimimetics), parathyroid cell calcium receptor in vitro, read-out: EC50
[5] = 100 to 1000 μM, buffer containing 2 mM CaCl2

- EC50 [1, 3]: < 5 µM
- EC50 [1, 4]: 0.78 µM
Compound: CSc1cccc(C(C)NCCCc2ccccc2)c1 (stereo not drawn) [Compound 8J, N-(3-Phenylpropyl)-1-(3-thiomethylphenyl)ethylamine hydrochloride]

- EC50 [1, 3]: < 5 µM
Compound: C[C@@H](NCCCc1ccccc1Cl)c1cccc2ccccc12 [Compound 12Z, (R)—N-3-(2-Chlorophenyl)-1-propyl-1-(1-naphthyl)ethylamine hydrochloride]

- EC50 [1, 4]: < 1 µM
Compound: COc1ccc(CCCN[C@H](C)c2cccc(OC)c2)cc1 [Compound 20I]

Further lines, the compound ahead of its results:

Compound: COc1cccc(C(C)NCCCc2ccccc2)c1 (racemic) [NPS 467]
- time course of hypocalcemic effect (Sprague-Dawley rats): maximal within three hours
- serum or whole blood Ca2+ (Sprague-Dawley rats; three hours, low calcium diet): dose-dependent reduction in serum or whole blood Ca^2+
- circulating levels of PTH (Sprague-Dawley rats; preliminary studies): dose-dependent reduction in circulating levels of PTH

Compound: CC1=C(C(=O)OC(C)C)[C@H](c2cccc3nonc23)C([N+](=O)[O-])=C(C)N1 [(+) 202-791]
- compounds with any effect on basal [Ca2+]i or increases evoked by extracellular Ca2+ [1]: None

Compound: CC1=C(C(=O)OC(C)C)[C@@H](c2cccc3nonc23)C([N+](=O)[O-])=C(C)N1 [(−) 202-791]
- compounds with any effect on basal [Ca2+]i or increases evoked by extracellular Ca2+ [1]: None

Compound: N=C(N)NCCC[C@H](N)C(=O)NCCCNCCCNCCCCCNC(=O)[C@H](CC(N)=O)NC(=O)Cc1ccc(O)cc1O [Argiotoxin-636, argiotoxin 636]
- effect on cytosolic Ca2+ responses to subsequent extracellular Ca2+ ([1]; 400 μM): did potentiate cytosolic Ca^2+ responses
- increases in [Ca2+]i ([1]; 400 μM): did not elicit increases in [Ca^2+]
- effect on [Ca2+]i ([1]; tested at 100 to 300 μM): no effect

Compound: N=C(N)NCCC[C@H](N)C(=O)NCCCNCCCNCCCCCNC(=O)[C@H](CC(N)=O)NC(=O)Cc1c[nH]c2cccc(O)c12 [Argiotoxin-659, argiotoxin 659]
- effect on [Ca2+]i ([1]; tested at 100 to 300 μM): evoked transient increases in [Ca^2+]i

Compound: COC(=O)C1=C(C)NC(C)=C([N+](=O)[O-])C1c1ccccc1C(F)(F)F (stereo not drawn) [BAY K 8644]
- compounds with any effect on basal [Ca2+]i or increases evoked by extracellular Ca2+ [1]: None

Compound: NCCCCCN [Cadaverine, cadaverine]
- effect on mobilization of intracellular Ca2+ ([1]; tested at 2 mM): inactive

Compound: CC(C)c1ccc(CN[C@H](C)c2cccc3ccccc23)cc1 [Compound 11X, (R)—N-(4-Isopropylbenzyl)-1-(1-naphthyl)ethylamine hydrochloride]
- EC50 [1, 3]: < 5 µM

Compound: COc1ccc([C@@H](C)N[C@H](C)c2cccc3ccccc23)cc1 [Compound 14U, (R,R)—N-(1-(4-Methoxyphenyl)ethyl)-1-(1-naphthyl)ethylamine hydrochloride]
- EC50 [1, 3]: < 5 µM
- EC50 [1, 4]: 0.13 µM

Compound: COc1ccc(CN[C@H](C)c2cccc3ccccc23)cc1Cl [Compound 17M, (R)—N-(3-Chloro-4-methoxybenzyl)-1-(1-naphthyl)ethylamine hydrochloride]
- EC50 [1, 3]: < 5 µM
- EC50 [1, 4]: 0.15 µM

Compound: COc1ccc([C@@H](C)N[C@H](C)c2cccc3ccccc23)cc1C [Compound 17P, (R,R)—N-(1-(4-Methoxy-3-methylphenyl)ethyl)-1-(1-naphthyl)ethylamine hydrochloride]
- EC50 [1, 3]: < 5 µM
- EC50 [1, 4]: 0.04 µM

Compound: COc1ccc(CCN(C)CCCC(C#N)(c2cc(OC)c(OC)c(OC)c2)C(C)C)cc1OC [Compound D-600]
- influx of extracellular Ca2+ [1]: blocked the influx of extracellular Ca^2+
- potentiation of Ca2+ mobilization / transient increases in [Ca2+]i [1]: potentiated the mobilization of intracellular Ca^2+

Compound: C1CNCCNCCNCCNCCNCCN1 [Hexacyclen, 1,4,7,10,13,16-hexaaza-cyclooctadecane]
- potency relative to NPS 383 [1]: 7 fold
- potency relative to pentaethylenehexamine [1]: 25 fold

Compound: CCC[C@@H]1C[C@@H](C(=O)N[C@@H]([C@H]2O[C@H](SC)[C@H](O)[C@@H](O)[C@H]2O)[C@@H](C)O)N(C)C1 [Lincomycin, lincomycin]
- effect on mobilization of intracellular Ca2+ ([1]; tested at 500 μM): without effect

Compound: NCCCCCCCCCCCCNC(=O)Cc1ccc(O)cc1O [NPS 021]
- increase in [Ca2+]i evoked by extracellular Ca2+ ([1]; around 500 μM): abolished
- change in [Ca2+]i by itself ([1]; low [Ca2+] 0.5 mM): does not by itself cause any change in [Ca^2+]i

Compound: COc1ccc(CC(=O)NCCCCCCCCCCCCN)cc1OC [NPS 384]
- increase in [Ca2+]i ([1]; 300 μM): did not evoke an increase in [Ca^2+]i
- effect on [Ca2+]i [1, 5]: prompt fall in [Ca^2+]i
- influx of extracellular Ca2+ [1]: blocked influx of extracellular Ca^2+
- potentiation of Ca2+ mobilization / transient increases in [Ca2+]i [1]: fails to do so

Compound: NCCCCCCCCCCCCN [NPS 472, 1,12-diaminododecane]
- effect on [Ca2+]i [1, 5]: prompt fall in [Ca^2+]i

Compound: NCCCCN [Putrescine]
- effect on mobilization of intracellular Ca2+ ([1]; tested at 2 mM): inactive

Compound: CCN(CC)CCCCCCCCOC(=O)c1cc(OC)c(OC)c(OC)c1 [TMB-8]
- influx of extracellular Ca2+ [1]: blocked the influx of extracellular Ca^2+
- potentiation of Ca2+ mobilization / transient increases in [Ca2+]i [1]: potentiated the mobilization of intracellular Ca^2+
- potentiation of Ca2+ mobilization / transient increases in [Ca2+]i ([1]; listed as TNB-8): potentiated transient increases in [Ca^2+]i

Compound: COc1ccc([C@@H]2Sc3ccccc3N(CCN(C)C)C(=O)[C@@H]2OC(C)=O)cc1 [diltiazem]
- activity like verapamil and D-600 ([1]; 100 μM): effective

Compound: N[C@@H](CCC(=O)O)C(=O)O [glutamate]
- response to mGluR agonists ([1]; bovine parathyroid cells or Xenopus oocytes expressing calcium receptors): did not respond

Compound: COc1cccc(C(C)NCCC(c2ccccc2)c2ccccc2)c1 (stereo not drawn) [meta-Methoxyfendiline]
- potency in mobilization of intracellular Ca2+ ([1]; racemic mixture): as potent as NPS 467

Compound: Philanthotoxin-433
- effect on mobilization of intracellular Ca2+ ([1]; tested at 500 μM): without effect

Compound: polyArg (100) (peptide)
- EC50 for the mobilization of intracellular Ca^2+ (fura-2, bovine parathyroid cells) [2]: 0.004 µM

Compound: polyArgTyr (22) (peptide)
- EC50 for mobilizing intracellular Ca^2+ [2]: < 0.1 µM
- EC50 for the mobilization of intracellular Ca^2+ (fura-2, bovine parathyroid cells) [2]: 0.2 µM

Compound: polyLys (3.8) (peptide)
- EC50 for the mobilization of intracellular Ca^2+ (fura-2, bovine parathyroid cells) [2]: 3 µM

Compound: polyLys (14) (peptide)
- EC50 for the mobilization of intracellular Ca^2+ (fura-2, bovine parathyroid cells) [2]: 1 µM

Compound: polyLys (27) (peptide)
- EC50 for the mobilization of intracellular Ca^2+ (fura-2, bovine parathyroid cells) [2]: 0.03 µM

Compound: protamine (peptide)
- cyclic AMP (% of control), isoproterenol-stimulated, 2 ug/ml protamine, +PTx [2]: 89 % of control
- cyclic AMP (% of control), isoproterenol-stimulated, 2 ug/ml protamine, control [2]: 20 % of control
- potency in mobilizing intracellular Ca^2+ in parathyroid cells (EC50) [2]: 0.04 µM

— patent US20130190407A1, “CALCIUM RECEPTOR-ACTIVE MOLECULES” (NPS Pharmaceuticals, Inc., priority 1991, published 2013)
